Assay results published in patent US9779901B2, “High temperature material compositions for high temperature thermal cutoff devices” (Therm-O-Disc, Incorporated, priority 2008, dated 2017).
Counter-ions that a name gives are not always drawn.

conditions: not given

SMILES	Melting Point
CN[C@H]1CC[C@@H](c2ccccc2)c2ccccc21 (as salt: hydrochloride) [Example 6]	241 to 242 °C
N#CC(CCN1CCC(C(=O)ON2C(=O)CCC2=O)(c2ccccc2)CC1)(c1ccccc1)c1ccccc1 (as salt: hydrochloride) [Example 17]	242 to 244 °C
CC1NCCc2c1[nH]c1cc(O)ccc21 (centres unmarked) (as salt: hydrochloride) [Example 100]	254 to 255 °C
CC(=O)Oc1c(C)c(C)c2c(c1C)CCC(C)(CCN(C)C)O2 (centres unmarked) (as salt: hydrochloride) [Example 172]	263 to 270 °C
C1=CCC2=C(C1)CC1=C(C2)CC2=C(CC=CC2)C1 [Example 4]	241 to 242 °C
CCOc1cccc(C#N)c1 [Example 5]	241 to 244 °C
O=C1NC(=O)C2(CCC(O)C2)c2ccncc21 (centres unmarked) [Example 8]	240 to 243 °C
c1cc2c3c(cccc3c1)-c1nc3ccccc3nc1-2 [Example 10]	241 °C
O=[N+]([O-])c1cccc2nc[nH]c12 [Example 12]	242 °C
NC(=O)CCCC[C@@H]1SC[C@@H]2NC(=O)N[C@@H]21 [Example 13]	242 to 244 °C
CC(C)C(=O)OC1C[C@H]2CC[C@@H](C1)N2C (some centres unmarked) [Example 14]	242 °C
c1cnc2c(ccc3nccnc32)n1 [Example 20]	242 °C
CC(C)(C)C1=CC(=C2C=C(C(C)(C)C)C(=O)C(C(C)(C)C)=C2)C=C(C(C)(C)C)C1=O [Example 22]	243 to 245 °C
Nc1nc(N)nc(Cc2ccccc2)n1 [Example 67]	248 °C
Cc1ccc2cc3cc(C)ccc3cc2c1 [Example 80]	250 °C
Oc1cccc2nc3ccccc3cc12 [Example 84]	230 °C
O=c1nc(Cc2ccccc2)[nH]c2ccccc12 [Example 102]	254 to 256 °C
c1ccc2cc3c(ccc4cc5ccccc5cc43)cc2c1 [Example 123]	257 °C

conditions: estimated melting point temperature ranges of candidate organic compounds (Table 2); some compounds have several values, partly in parentheses, because analytic techniques differ; cited from earlier work

SMILES	Melting Point
CCCOc1ccccc1-c1nc2nn[nH]c2c(=O)[nH]1 [Example 1]	241° ° C.
CCCN(CCC)CCc1cccc2c1CC(=O)N2 [Example 2]	241-243° ° C.
Cl.c1ccc(N=C(Nc2ccccc2)Nc2ccccc2)cc1 [Example 3]	241° ° C.
C1=CCC2=C(C1)CC1=C(C2)CC2=C(CC=CC2)C1 [Example 4]	241-242° ° C.
CCOc1cccc(C#N)c1 [Example 5]	241-244° ° C.
CN[C@H]1CC[C@@H](c2ccccc2)c2ccccc21 [Example 6]	241-242° ° C.
Cc1ccc2cc3ccc(C)cc3cc2c1 [Example 7]	241° ° C.
O=C1NC(=O)C2(CCC(O)C2)c2ccncc21 (centres unmarked) [Example 8]	240-243° ° C.
Nc1nnc(-c2ccccc2)o1 [Example 9]	241-243° ° C.
c1cc2c3c(cccc3c1)-c1nc3ccccc3nc1-2 [Example 10]	241° ° C.
O=[N+]([O-])c1cccc2nc[nH]c12 [Example 12]	242° ° C.
NC(=O)CCCC[C@@H]1SC[C@@H]2NC(=O)N[C@@H]21 [Example 13]	242-244° ° C.
O=C1C=CC=CC1=C1Nc2ccccc2N1 [Example 15]	242° ° C.
C[C@]12CCC(=O)C[C@H]1CC[C@@H]1[C@@H]2CC[C@]2(C)[C@@H](c3ccc(=O)oc3)CC[C@]12O [Example 16]	242-245° ° C.
N#CC(CCN1CCC(C(=O)ON2C(=O)CCC2=O)(c2ccccc2)CC1)(c1ccccc1)c1ccccc1 [Example 17]	242-244° ° C.
CC1(C)Oc2ccc(C#N)cc2[C@@H](N2CCCC2=O)[C@@H]1O [Example 18]	242-244° ° C.
c1cnc2c(ccc3nccnc32)n1 [Example 20]	242° ° C.
CC(C)(C)C1=CC(=C2C=C(C(C)(C)C)C(=O)C(C(C)(C)C)=C2)C=C(C(C)(C)C)C1=O [Example 22]	243-245° ° C.
O=C1C(=O)c2cccc3cccc1c23 [Example 27]	243-245° ° C.
[H]/N=C(\N/C(=N/[H])Nc1ccc(Cl)cc1)NC(C)C [Example 30]	244-245° ° C.
c1ccc(Nc2ccc(-c3ccc(Nc4ccccc4)cc3)cc2)cc1 [Example 32]	244-245° ° C.
c1ccc2c(C(c3c[nH]c4ccccc34)c3c[nH]c4ccccc34)c[nH]c2c1 [Example 38]	244-246° ° C.
NC(=O)c1cccc2nc3ccccc3nc12 [Example 42]	245-246° ° C.
CN1C(=O)C(=NNC(N)=S)c2ccccc21 [Example 43]	245° ° C.

SMILES	Melting Point
CCC(N)Cc1cc(OC)c(C)cc1OC (centres unmarked) [Example 46]	245-246.5° ° C.
O=C(Nc1ccccc1)Nc1ccccc1 [Example 49]	246-248° ° C.
Cn1c(=S)c2c(ncn2C)n(C)c1=O [Example 52]	246-247° ° C.
c1ccc(-c2c3ccccc3c(-c3ccccc3)c3ccccc23)cc1 [Example 54]	246-248° ° C.
CC(C)c1nc2nc(N)nc(N)c2nc1C(C)C [Example 55]	246° ° C.
Nc1ccc(S(=O)(=O)Nc2cnc3ccccc3n2)cc1 [Example 58]	247-248° ° C.
CCCC1C(=O)N2C(N(C)C)=Nc3ccc(C)cc3N2C1=O (centres unmarked) [Example 62]	247-248° ° C.
Oc1nc2ccccc2nc1-c1ccccc1 [Example 64]	247° ° C.
CC(=O)[C@H]1CC[C@H]2[C@@H]3CCc4cc(O)ccc4[C@H]3CC[C@]12C [Example 65]	247-249° ° C.
O=c1ccc2[nH]cc(C3=CCNCC3)c2[nH]1 [Example 66]	248° ° C.
Nc1cc(N)nc(N)n1 [Example 70]	249-251° ° C.
COc1cccc2c1CCCC2N (centres unmarked) [Example 76]	249-250° ° C.
Nc1nc(N)c2ccccc2n1 [Example 78]	250-252° ° C.
Nc1ccc(N=Nc2ccc(N)cc2)cc1 [Example 81]	250° ° C.
CN(C)c1ncnc2nc[nH]c12 [Example 89]	251-253° ° C.
O=C(Nc1ccccc1)C(=O)Nc1ccccc1 [Example 91]	252-254° ° C.
Cc1cc2cc3ccccc3cc2cc1C [Example 93]	252° ° C.
Nc1cccc2c1C(=O)c1ccccc1C2=O [Example 96]	253-254° ° C.
Nc1nc2ccc([N+](=O)[O-])cc2s1 [Example 97]	253° ° C.
N#Cc1cncnc1N [Example 104]	254-256° ° C.
O=C1C2C(c3ccccc3)NC(c3ccccc3)C1C(c1ccccc1)NC2c1ccccc1 (centres unmarked) [Example 106]	255-256° ° C.
Nc1ccc2nc(N)nc(N)c2c1 [Example 109]	255-258° ° C.
O=[N+]([O-])c1c2ccccc2c2ccc3cccc4ccc1c2c43 [Example 111]	255-256° ° C.
Oc1cc(-c2ccccc2)nc2ccccc12 [Example 114]	255-257° ° C.

SMILES	Melting Point
c1cc(-c2sc(-c3ccncc3)c(-c3ccncc3)c2-c2ccncc2)ccn1 [Example 116]	256-258° ° C.
Cn1c(=O)c(=O)n(C)c2ccccc21 [Example 120]	256-258° ° C.
O=C1C(=O)c2cccnc2-c2ncccc21 [Example 126]	258° ° C.
NC1=CC(=O)c2ncccc2C1=O [Example 131]	258-260° ° C.
Cc1ccc2c(c1)[nH]c1ccccc12 [Example 133]	259° ° C.
Cc1cc(C)c(C#N)c(=S)[nH]1 [Example 134]	259-260° ° C.
COc1nc(C)nc(N)n1 [Example 135]	259-261° ° C.
OC1C2CC3CC(C2)CC1C3 (centres unmarked) [Example 140]	260-265° ° C.
OCC(CO)(CO)CO [Example 144]	260° ° C.
Oc1ccc2cccc(O)c2n1 [Example 146]	260° ° C.
O=C1CN(N=C/C=C/c2ccc([N+](=O)[O-])o2)C(=O)N1 [Example 151]	261° ° C.
COC(=O)c1cc2c(cn1)[nH]c1ccccc12 [Example 153]	261-262° ° C.
N#Cc1cc(C#N)cc(C#N)c1 [Example 157]	261-263° ° C.
Cc1ccc(NC(=O)Nc2ccc(C)cc2)cc1 [Example 167]	262-263° ° C.
COc1ccc2nc(S)[nH]c2c1 [Example 170]	263-264° ° C.
CC(=O)Oc1c(C)c(C)c2c(c1C)CCC(C)(CCN(C)C)O2 (centres unmarked) [Example 172]	263-270° ° C.
NC1=CC(=O)c2cccnc2C1=O [Example 177]	263° ° C.
Cn1c(=O)c2[nH]cnc2n(C)c1=O [Example 179]	264° ° C.
CN/C(=N\c1ccc(C2=NNC(=O)CC2C)cc1)NC#N (centres unmarked) [Example 180]	264-265° ° C.
C[C@]12CC[C@@H]3c4ccc(O)cc4C=C[C@H]3[C@@H]1CCC2=O [Example 186]	264-265° ° C.
NC(=O)c1ccc(Oc2ccc(C(N)=O)cc2)cc1 [Example 193]	265° ° C.
Cc1c(C)c2cccnc2c2ncccc12 [Example 195]	265-266° ° C.
COc1ccc(-c2cc(=O)c3ccc(O)cc3o2)cc1 [Example 196]	265-267° ° C.
